The source of these data is US20110288086A1, “POLYCYCLIC QUINAZOLINES, PREPARATION THEREOF, AND USE THEREOF” (priority 2010, published 2011).

SMILES strings stand for the structures.

Assay [1] relates to MDA-MB-435s human breast carcinoma cells. Nature of the assay: Tumor cell inhibition ratio, CCK-8 kit, MDA-MB-435s. Particulars: read-out: Antiproliferative effect (inhibition ratio) 435s.
Excerpt: (§1) The inhibitory activities of the compounds on tumor cells in vitro
Assay [2] concerns PANC-1 human pancreatic cancer cells. Nature of the assay: Tumor cell inhibition ratio, CCK-8 kit, PANC-1. As to conditions: PANC-1, read-out: Antiproliferative effect (inhibition ratio) PANC-1.
Excerpt: as §1
Assay [3] concerns Hep3B2.1-7 human hepatoma carcinoma cells. Kind of assay: Tumor cell inhibition ratio, CCK-8 kit, Hep3B. Particulars: read-out: Antiproliferative effect (inhibition ratio) Hep3B.
Excerpt: as §1
Assay [4] relates to A549 human lung cancer cells. Nature of the assay: Tumor cell inhibition ratio, CCK-8 kit, A549. As to conditions: A549, read-out: Antiproliferative effect (inhibition ratio) A549.
Excerpt: as §1
For assay [5], the system named is Colo320 human rectal cancer cells. Kind of assay: Tumor cell inhibition ratio, CCK-8 kit, Colo320. Particulars: COLO 320, read-out: Antiproliferative effect (inhibition ratio) Colo320.
Excerpt: as §1
For assay [6], the system named is PC-3 human carcinoma of prostate. Kind of assay: Tumor cell inhibition ratio, CCK-8 kit, PC-3. As to conditions: read-out: Antiproliferative effect (inhibition ratio) PC-3.
Excerpt: as §1
Assay [7] concerns Hut78 T-Lymphocytic Leukemia cells. Nature of the assay: Tumor cell inhibition ratio, CCK-8 kit, Hut78. Particulars: Homo sapiens, HuT78, read-out: Antiproliferative effect (inhibition ratio) Hut-78.
Excerpt: as §1
The subject of assay [8] is Jurkat E6-1 human T-cell lymphoma. Nature of the assay: Tumor cell inhibition ratio, CCK-8 kit, Jurkat E6-1. Particulars: Jurkat E6.1, read-out: Antiproliferative effect (inhibition ratio) E6-1.
Excerpt: as §1
The subject of assay [9] is K562 human chronicity marrow leukemic cells. Nature of the assay: Tumor cell inhibition ratio, CCK-8 kit, K562. Particulars: K562, read-out: Antiproliferative effect (inhibition ratio) K562.
Excerpt: as §1
The next assay has as its target T1, aurora kinase B (Homo sapiens, UniProt Q96GD4).
T1 construct: purchased Invitrogen PV3174
Nature of the assay: Aurora kinase B inhibition in vitro (Invitrogen aurora kinase screening kit PV3174). It is filed as biochemical.

The next assay concerns the target EGFR tyrosine kinase (Homo sapiens, UniProt P00533). Nature of the assay: EGFR tyrosine kinase inhibition in vitro (Invitrogen EGFR inhibitor screening kit PV3193).

Chain of EGFR tyrosine kinase (P00533 25-1210): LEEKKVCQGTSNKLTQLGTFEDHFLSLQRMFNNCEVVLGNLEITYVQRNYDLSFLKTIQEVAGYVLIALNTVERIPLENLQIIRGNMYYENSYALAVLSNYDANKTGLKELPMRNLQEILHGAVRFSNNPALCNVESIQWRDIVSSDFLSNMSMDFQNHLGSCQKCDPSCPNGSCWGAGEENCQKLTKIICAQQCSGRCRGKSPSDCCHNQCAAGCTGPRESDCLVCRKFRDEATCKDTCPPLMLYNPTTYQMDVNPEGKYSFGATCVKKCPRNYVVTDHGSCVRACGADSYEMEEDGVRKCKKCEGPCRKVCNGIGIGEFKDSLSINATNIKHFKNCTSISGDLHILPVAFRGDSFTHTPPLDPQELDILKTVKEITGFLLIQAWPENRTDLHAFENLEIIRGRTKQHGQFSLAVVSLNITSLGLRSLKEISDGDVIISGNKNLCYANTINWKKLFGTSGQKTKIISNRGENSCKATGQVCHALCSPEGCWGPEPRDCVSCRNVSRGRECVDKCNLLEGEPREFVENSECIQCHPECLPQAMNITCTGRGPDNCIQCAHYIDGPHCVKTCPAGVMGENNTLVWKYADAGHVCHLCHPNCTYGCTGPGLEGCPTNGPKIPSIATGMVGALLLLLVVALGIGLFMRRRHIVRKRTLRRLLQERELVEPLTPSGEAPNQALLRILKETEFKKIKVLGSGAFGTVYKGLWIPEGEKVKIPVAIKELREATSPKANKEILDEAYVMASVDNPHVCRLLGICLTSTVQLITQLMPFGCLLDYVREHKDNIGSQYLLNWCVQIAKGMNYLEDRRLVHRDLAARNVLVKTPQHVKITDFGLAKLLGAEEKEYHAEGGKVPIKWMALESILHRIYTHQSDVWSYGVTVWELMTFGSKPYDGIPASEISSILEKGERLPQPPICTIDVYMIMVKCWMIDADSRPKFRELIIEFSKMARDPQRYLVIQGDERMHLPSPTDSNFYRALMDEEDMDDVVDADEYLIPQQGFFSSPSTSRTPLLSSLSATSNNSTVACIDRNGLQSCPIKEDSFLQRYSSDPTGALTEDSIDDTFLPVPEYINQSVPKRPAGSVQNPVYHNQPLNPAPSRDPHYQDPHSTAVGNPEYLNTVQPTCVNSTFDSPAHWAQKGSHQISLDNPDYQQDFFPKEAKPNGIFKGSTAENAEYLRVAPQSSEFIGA
T1 sequence (Q96GD4 whole entry): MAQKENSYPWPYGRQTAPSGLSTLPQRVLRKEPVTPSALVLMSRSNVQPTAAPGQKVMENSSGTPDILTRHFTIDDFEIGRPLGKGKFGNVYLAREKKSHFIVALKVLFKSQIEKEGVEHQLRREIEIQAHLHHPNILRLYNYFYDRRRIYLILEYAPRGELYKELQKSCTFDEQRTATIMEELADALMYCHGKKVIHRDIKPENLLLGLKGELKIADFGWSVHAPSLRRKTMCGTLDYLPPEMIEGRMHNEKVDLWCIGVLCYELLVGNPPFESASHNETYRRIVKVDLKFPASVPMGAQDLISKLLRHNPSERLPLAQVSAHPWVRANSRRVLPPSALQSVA
Excerpt for EGFR tyrosine kinase: The inhibitory activities of EGFR tyrosine kinase in vitro
Erlotinib hydrochloride was used as a positive control drug.

In the case of `COc1cc2c(cc1OCCCN1CCOCC1)C1=Nc3cccc(C#N)c3CN1C=N2` [Compound V-27, 3-methoxy-2-(3-morpholinylpropoxy)-8H-quinazolino[4,3-b]quinazoline-9-nitrile], the inhibition at 10 µM was determined as 12% in [1]; 41.8% in assay [2]; 2.44% in assay [3]; 39.8% in assay [4]; 34.5% in [5]; 25.2% in assay [6]. Also, the inhibition at 10 µM in assay [7] was determined as 65.6%; in assay [8] it was 24%; in [9], 22.4%. For the same molecule, the inhibition at 100 µM in [1] was 79.7%; in assay [2], 99.8%; in [3], 67.3%; in [4] it was 80%; in assay [5] it was 84.8%; in assay [6] it was 84%. Also, the values for the inhibition at 100 µM in assay [7], in assay [8] and in assay [9] were 95.9%, 75.4% and 62.2%, respectively.
As for `C#Cc1cccc2c1CN1C=Nc3cc(OC)c(OCCCN4CCOCC4)cc3C1=N2` [Compound V-26, 4-(3-((9-ethynyl-3-methoxy-8H-quinazolino[4,3-b]quinazoline-2-yl)oxy)propyl)morpholine], the inhibition at 10 µM turned out to be 38% in [1]; 40.7% in assay [2]; 28.4% in [3]; 27.7% in [4]; 32.1% in assay [5]; 5.86% in [6]. Moreover, the inhibition at 10 µM in assay [7] is 32.1%; in assay [8], 44.6%; in [9] it was 4.29%. In addition, the inhibition at 100 µM in [1] came out at 71.4%; in [2], 76.6%; in assay [3] it was 89.5%; in [4], 93.6%; in assay [5], 81.4%; in assay [6], 30.3%. Further, the values for the inhibition at 100 µM in assay [7], in assay [8] and in assay [9] were 72.4%, 85.4% and 11.7%, respectively.
In the case of `COCCOc1cc2c(cc1OCCOC)C1=Nc3cccc(NC(=O)c4ccccc4)c3CN1C=N2` [Compound V-12, N-{2,3-bis(2-methoxyethoxy)-8H-quinazolino[4,3-b]quinazoline}benzamide], the “The inhibition ratio of the compound on Aurora B(%)” value at aurora kinase B (40 μM) was 40.1%; at aurora kinase B (200 μM) it was 87.9%. Also, the “The inhibition ratio of the compound on EGFR(%)” value at EGFR tyrosine kinase (40 μM) came out at 25.8%; at EGFR tyrosine kinase (200 μM), 62.7%.
For the molecule `COCCOc1cc2c(cc1OCCOC)C1=Nc3cc(CO)cc(N)c3CN1C=N2` [Compound V-21, 9-amino-11-hydroxymethyl-2,3-bis(2-methoxyethoxy)-8H-quinazolino[4,3-b]quinazoline], the inhibition at 10 µM in assay [1] amounted to 67%; in assay [2], 52.7%; in [3], 21.8%; in [4], 45.3%; in assay [5], 31.8%; in assay [6], 27.6%. Moreover, the inhibition at 10 µM was found to be 10.3% in assay [7], 43.5% in assay [8] and 26.9% in [9]. In addition, the inhibition at 100 µM in assay [1] worked out at 74.9%; in [2], 89.4%; in assay [3], 86.3%; in assay [4], 78%; in assay [5] it was 87%; in [6], 62.6%. Moreover, the inhibition at 100 µM in assay [7] worked out at 52.7%; in assay [8], 90.3%; in [9], 81.6%.
Take `COc1cc2c(cc1OCCCN1CCNCC1)C1=Nc3cccc(F)c3CN1C=N2` [Compound V-25, 9-fluoro-3-methoxy-2-(3-(piperazinyl-1-yl)propoxy)-8H-quinazolino[4,3-b]quinazoline]: the inhibition at 10 µM in [1] was found to be 20.4%; in assay [2] it was 44.2%; in [3], 21.3%; in assay [4], 47%; in assay [5], 33.5%; in assay [6], 53.4%. The inhibition at 10 µM stood at 19% in assay [7], 31.1% in assay [8] and 44.1% in assay [9]. Moreover, the inhibition at 100 µM turned out to be 77% in assay [1]; 88.6% in assay [2]; 64.7% in assay [3]; 79.3% in assay [4]; 79.2% in [5]; 64.4% in [6]. The inhibition at 100 µM is 21.9% in [7], 81.3% in [8] and 82.8% in assay [9].
On to `CS(=O)(=O)CCNCc1ccc(-c2ccc3c(c2)C2=Nc4ccc(F)c(Cl)c4CN2C=N3)o1` [Compound V-34, N-((5-(9-chloro-10-fluoro-8H-quinazolino[4,3-b]quinazoline-2-yl)furan-2-yl)methyl)-2-(methylsulfonyl)ethylamine], for which the results for the “The inhibition ratio of the compound on Aurora B(%)” value on aurora kinase B (40 μM) and on aurora kinase B (200 μM) were 17.8% and 92.6%, respectively. The figures for the “The inhibition ratio of the compound on EGFR(%)” value at EGFR tyrosine kinase (40 μM) and at EGFR tyrosine kinase (200 μM) were 21.6% and 72.6%, respectively.
Take `Cc1cc(Nc2cc(N3CCN(C)CC3)nc(Sc3ccc(NC(=O)C4CC4)cc3)n2)n[nH]1` [VX-680, reference compound]: the “The inhibition ratio of the compound on Aurora B(%)” value on aurora kinase B (40 μM) turned out to be 35.2%; at aurora kinase B (200 μM) it was 81.6%.
Regarding `CS(=O)(=O)CCNCc1ccc(-c2ccc3c(c2)C2=Nc4cc(Cl)ccc4CN2C=N3)o1` [Compound V-36, N-((5-(11-chloro-8H-quinazolino[4,3-b]quinazoline-2-yl)furan-2-yl)methyl)-2-(methylsulfonyl)ethylamine], the “The inhibition ratio of the compound on Aurora B(%)” value is 52.6% at aurora kinase B (40 μM) and 97.9% at aurora kinase B (200 μM). For the same molecule, the “The inhibition ratio of the compound on EGFR(%)” value on EGFR tyrosine kinase (40 μM) was determined as 55.6%; on EGFR tyrosine kinase (200 μM) it was 87.9%.
As to `COc1cc2c(cc1OC)C1=Nc3ccc(F)c(Cl)c3CN1C=N2` [Compound V-30, 9-chloro-10-fluoro-2,3-dimethoxy-8H-quinazolino[4,3-b]quinazoline], the “The inhibition ratio of the compound on Aurora B(%)” value at aurora kinase B (40 μM) worked out at 46.3%; on aurora kinase B (200 μM), 79.6%. In addition, the figures for the “The inhibition ratio of the compound on EGFR(%)” value on EGFR tyrosine kinase (40 μM) and on EGFR tyrosine kinase (200 μM) were 27.8% and 82.1%, respectively.
`COc1cc2c(cc1OCCCN1CCOCC1)C1=Nc3ccc(F)c(Cl)c3CN1C=N2` [Compound V-23, 4-(3-((9-chloro-10-fluoro-3-methoxy-8H-quinazolino[4,3-b]quinazoline-2-yl)oxy)propyl)morpholine di-p-toluenesulfonate]: the inhibition at 10 µM in assay [1] is 20.7%; in [2] it was 21.5%; in assay [3], 27.1%; in assay [4] it was 10.4%; in [5], 52.3%; in assay [6], 30.7%. In addition, the figures for the inhibition at 10 µM in assay [7], in [8] and in assay [9] were 42%, 56.3% and 58.7%, respectively. For the same molecule, the inhibition at 100 µM in assay [1] was found to be 52.2%; in [2], 98.8%; in assay [3], 48.7%; in assay [4], 22.5%; in assay [5], 99.5%; in assay [6] it was 97.6%. Moreover, the inhibition at 100 µM in [7] came out at 99.8%; in assay [8], 77.5%; in assay [9], 73.4%.
On to `C#Cc1cccc2c1CN1C=Nc3ccc(-c4ccc(CNCCS(C)(=O)=O)o4)cc3C1=N2` [Compound V-35, N-((5-(9-ethynyl-8H-quinazolino[4,3-b]quinazoline-2-yl)furan-2-yl)methyl)-2-(methylsulfonyl)ethylamine], for which the “The inhibition ratio of the compound on Aurora B(%)” value at aurora kinase B (40 μM) came out at 3.3%; on aurora kinase B (200 μM), 79.8%. Moreover, the “The inhibition ratio of the compound on EGFR(%)” value is 13.3% on EGFR tyrosine kinase (40 μM) and 75.8% at EGFR tyrosine kinase (200 μM).
Take `COc1cc2c(cc1OCCCN1CCOCC1)C1=Nc3cc(COS(C)(=O)=O)cc([N+](=O)[O-])c3CN1C=N2` [Compound V-29]: the “The inhibition ratio of the compound on Aurora B(%)” value on aurora kinase B (40 μM) was determined as 11.2%; on aurora kinase B (200 μM) it was 78.9%. The “The inhibition ratio of the compound on EGFR(%)” value at EGFR tyrosine kinase (40 μM) was 35.2%; at EGFR tyrosine kinase (200 μM) it was 86.5%.
